# Measurements taken from patent US20240261258A1, “Presurgical Perineural Administration of Resiniferatoxin For Reduction of Post-Operative Pain” (Sorrento Therapeutics, Inc., priority 2021, published 2024).
# Marks after values point to notes of the source that are not given here.
# Key:
# left stifle joint = experiment: Necropsy and histopathology of stifle joints; type: in vivo, dog; details: for Bone remodeling with increased osteoblasts/osteoclasts: Mild, number of dogs / Bone remodeling with increased osteoblasts/osteoclasts: Minimal, number of dogs / Bone remodeling with increased osteoblasts/osteoclasts: Moderate, number of dogs / Bone remodeling with increased osteoblasts/osteoclasts: number of dogs with the finding / Collagen (picosirius red stain): number of dogs with the finding / Non-epiphyseal cartilage: Mild, number of dogs / Non-epiphyseal cartilage: Minimal, number of dogs / Non-epiphyseal cartilage: Moderate, number of dogs / Non-epiphyseal cartilage: number of dogs with the finding / Screw holes with intraluminal hemorrhage: Mild, number of dogs / Screw holes with intraluminal hemorrhage: number of dogs with the finding / Soft tissue mononuclear inflammation: Mild, number of dogs / Soft tissue mononuclear inflammation: Minimal, number of dogs / Soft tissue mononuclear inflammation: number of dogs with the finding / Synovial hypertrophy/hyperplasia: Mild, number of dogs / Synovial hypertrophy/hyperplasia: Minimal, number of dogs / Synovial hypertrophy/hyperplasia: Moderate, number of dogs / Synovial hypertrophy/hyperplasia: number of dogs with the finding: left stifle joint, 4 examined; for Average collagen score left leg (picosirius red): operated left stifle; for Average collagen score right leg (picosirius red): un-operated right stifle
# Source text: These findings were confirmed during necropsy.
# It was characterized by plump, variably piled synoviocytes with slightly more prominent fibrillary projections into the synovial spaces as compared to the control right stifle joints. Some control un-operated right stifle joints also occasionally had minimal synovial hypertrophy/hyperplasia typified by slightly plump, variably piled synoviocytes, but lacked increased fibrillary projections.
# Soft tissue mononuclear inflammation was seen as small collections of lymphocytes, macrophages, and/or plasma cells or increased numbers of diffusely scattered mononuclear cells. The inflammation was commonly seen in the synovial lining subjacent to the synoviocytes, or in soft tissues that remained attached to the bone/joint. The incidences and average severity grades were not remarkably different between left joint groups.
# Bone remodeling with increased osteoblasts/osteoclasts was characterized by irregular areas of bone/callous formation. Some areas of bone remodeling had increased cellularity due to increased numbers of osteoblasts and osteoclasts that outlined bone.
# Presence of cartilage on the operated sides was presumptively interpreted to represent areas of residual cartilage in the physis which had been shifted/transposed by the TPLO surgery, and/or new cartilage formation. The amount of cartilage in each section was subjectively graded using the H&E and toluidine blue stains. […] Any differences could also be influenced by differences in physeal cartilage amounts/extent of physeal closure between dogs, and by plane-of-section variabilities.
# A collagen score for each of the stifle joint slides stained with picosirius red was assigned based on the qualitative estimate of collagen present on the slide. The average of the three slides per joint was recorded. An overall collagen score for the left and right stifle joints for each group was calculated by averaging the individual collagen scores. […] The average collagen scores of groups 1-4 for the operated left legs were slightly higher than the corresponding un-operated right leg group average collagen scores. Higher collagen in the operated legs seemed consistent with post-surgical healing processes.
# [1] = test system: dog undergoing TPLO, femoral and sciatic nerves; experiment: TPLO in a single dog after perineural RTX (Example A); type: in vivo
# Experimental: A TPLO (Tibial Plateau Osteotomy) was performed on a single dog. Before surgery, 25 μg RTX was administered perineurally to the femoral and sciatic nerves. The procedure included cutting the bone in the leg, changing the angle of the knee articulation, screwing in a plate, and resewing muscle that was cut to access the knee.
# After waking up, all of the dog's motor functions were preserved. […] The dog was able to put the affected leg down from time to time when ambulating but, as would be expected, the leg was not fully weight-bearing.
# [2] = 25 μg RTX perineurally before surgery
smiles,measurement,setting,value
"C=C(C)[C@]12C[C@@H](C)[C@@]34O[C@](Cc5ccccc5)(O[C@@H]1[C@@H]3C=C(COC(=O)Cc1ccc(O)c(OC)c1)C[C@]1(O)C(=O)C(C)=C[C@@H]41)O2 [RTX, resiniferatoxin]",Microscopic changes in the left stifle joints,"left stifle joint; all RTX groups, day 56",No microscopic changes in the left stifle joints suggestive of RTX-related toxicity
same,Callus at removal of the TPLO plate,"left stifle joint; all stifles, confirmed during necropsy",normal callus
same,"Bone remodeling with increased osteoblasts/osteoclasts: Mild, number of dogs",left stifle joint; Group 1 High (25 μg),2
same,"Bone remodeling with increased osteoblasts/osteoclasts: Minimal, number of dogs",left stifle joint; Group 1 High (25 μg),2
same,"Bone remodeling with increased osteoblasts/osteoclasts: Moderate, number of dogs",left stifle joint; Group 1 High (25 μg),0
same,Bone remodeling with increased osteoblasts/osteoclasts: number of dogs with the finding,left stifle joint; Group 1 High (25 μg),(4)
same,Collagen (picosirius red stain): number of dogs with the finding,left stifle joint; Group 1 High (25 μg),(4)
same,"Non-epiphyseal cartilage: Mild, number of dogs",left stifle joint; Group 1 High (25 μg),1
same,"Non-epiphyseal cartilage: Minimal, number of dogs",left stifle joint; Group 1 High (25 μg),1
same,"Non-epiphyseal cartilage: Moderate, number of dogs",left stifle joint; Group 1 High (25 μg),2
same,Non-epiphyseal cartilage: number of dogs with the finding,left stifle joint; Group 1 High (25 μg),(4)
same,"Screw holes with intraluminal hemorrhage: Mild, number of dogs",left stifle joint; Group 1 High (25 μg),4
same,Screw holes with intraluminal hemorrhage: number of dogs with the finding,left stifle joint; Group 1 High (25 μg),(4)
same,"Soft tissue mononuclear inflammation: Mild, number of dogs",left stifle joint; Group 1 High (25 μg),1
same,"Soft tissue mononuclear inflammation: Minimal, number of dogs",left stifle joint; Group 1 High (25 μg),3
same,Soft tissue mononuclear inflammation: number of dogs with the finding,left stifle joint; Group 1 High (25 μg),(4)
same,"Synovial hypertrophy/hyperplasia: Mild, number of dogs",left stifle joint; Group 1 High (25 μg),4
same,"Synovial hypertrophy/hyperplasia: Minimal, number of dogs",left stifle joint; Group 1 High (25 μg),0
same,"Synovial hypertrophy/hyperplasia: Moderate, number of dogs",left stifle joint; Group 1 High (25 μg),0
same,Synovial hypertrophy/hyperplasia: number of dogs with the finding,left stifle joint; Group 1 High (25 μg),(4)
same,"Bone remodeling with increased osteoblasts/osteoclasts: Mild, number of dogs",left stifle joint; Group 2 Low (6.25 μg),2
same,"Bone remodeling with increased osteoblasts/osteoclasts: Minimal, number of dogs",left stifle joint; Group 2 Low (6.25 μg),1
same,"Bone remodeling with increased osteoblasts/osteoclasts: Moderate, number of dogs",left stifle joint; Group 2 Low (6.25 μg),1
same,Bone remodeling with increased osteoblasts/osteoclasts: number of dogs with the finding,left stifle joint; Group 2 Low (6.25 μg),(4)^a
same,Collagen (picosirius red stain): number of dogs with the finding,left stifle joint; Group 2 Low (6.25 μg),(4)^a
same,"Non-epiphyseal cartilage: Mild, number of dogs",left stifle joint; Group 2 Low (6.25 μg),1
same,"Non-epiphyseal cartilage: Minimal, number of dogs",left stifle joint; Group 2 Low (6.25 μg),1
same,"Non-epiphyseal cartilage: Moderate, number of dogs",left stifle joint; Group 2 Low (6.25 μg),2
same,Non-epiphyseal cartilage: number of dogs with the finding,left stifle joint; Group 2 Low (6.25 μg),(4)^a
same,"Screw holes with intraluminal hemorrhage: Mild, number of dogs",left stifle joint; Group 2 Low (6.25 μg),4
same,Screw holes with intraluminal hemorrhage: number of dogs with the finding,left stifle joint; Group 2 Low (6.25 μg),(4)^a
same,"Soft tissue mononuclear inflammation: Mild, number of dogs",left stifle joint; Group 2 Low (6.25 μg),4
same,"Soft tissue mononuclear inflammation: Minimal, number of dogs",left stifle joint; Group 2 Low (6.25 μg),0
same,Soft tissue mononuclear inflammation: number of dogs with the finding,left stifle joint; Group 2 Low (6.25 μg),(4)^a
same,"Synovial hypertrophy/hyperplasia: Mild, number of dogs",left stifle joint; Group 2 Low (6.25 μg),3
same,"Synovial hypertrophy/hyperplasia: Minimal, number of dogs",left stifle joint; Group 2 Low (6.25 μg),0
same,"Synovial hypertrophy/hyperplasia: Moderate, number of dogs",left stifle joint; Group 2 Low (6.25 μg),1
same,Synovial hypertrophy/hyperplasia: number of dogs with the finding,left stifle joint; Group 2 Low (6.25 μg),(4)^a
same,"Bone remodeling with increased osteoblasts/osteoclasts: Mild, number of dogs",left stifle joint; Group 3 Local (50 μg),2
same,"Bone remodeling with increased osteoblasts/osteoclasts: Minimal, number of dogs",left stifle joint; Group 3 Local (50 μg),0
same,"Bone remodeling with increased osteoblasts/osteoclasts: Moderate, number of dogs",left stifle joint; Group 3 Local (50 μg),2
same,Bone remodeling with increased osteoblasts/osteoclasts: number of dogs with the finding,left stifle joint; Group 3 Local (50 μg),(4)
same,Collagen (picosirius red stain): number of dogs with the finding,left stifle joint; Group 3 Local (50 μg),(4)
same,"Non-epiphyseal cartilage: Mild, number of dogs",left stifle joint; Group 3 Local (50 μg),2
same,"Non-epiphyseal cartilage: Minimal, number of dogs",left stifle joint; Group 3 Local (50 μg),0
same,"Non-epiphyseal cartilage: Moderate, number of dogs",left stifle joint; Group 3 Local (50 μg),2
same,Non-epiphyseal cartilage: number of dogs with the finding,left stifle joint; Group 3 Local (50 μg),(4)
same,"Screw holes with intraluminal hemorrhage: Mild, number of dogs",left stifle joint; Group 3 Local (50 μg),4
same,Screw holes with intraluminal hemorrhage: number of dogs with the finding,left stifle joint; Group 3 Local (50 μg),(4)
same,"Soft tissue mononuclear inflammation: Mild, number of dogs",left stifle joint; Group 3 Local (50 μg),2
same,"Soft tissue mononuclear inflammation: Minimal, number of dogs",left stifle joint; Group 3 Local (50 μg),2
same,Soft tissue mononuclear inflammation: number of dogs with the finding,left stifle joint; Group 3 Local (50 μg),(4)
same,"Synovial hypertrophy/hyperplasia: Mild, number of dogs",left stifle joint; Group 3 Local (50 μg),3
same,"Synovial hypertrophy/hyperplasia: Minimal, number of dogs",left stifle joint; Group 3 Local (50 μg),0
same,"Synovial hypertrophy/hyperplasia: Moderate, number of dogs",left stifle joint; Group 3 Local (50 μg),1
same,Synovial hypertrophy/hyperplasia: number of dogs with the finding,left stifle joint; Group 3 Local (50 μg),(4)
same,Average collagen score left leg (picosirius red),left stifle joint; Group 1 High (25 μg),2.9
same,Average collagen score left leg (picosirius red),left stifle joint; Group 2 Low (6.25 μg),2.6
same,Average collagen score left leg (picosirius red),left stifle joint; Group 3 Local (50 μg),3.0
same,Average collagen score right leg (picosirius red),left stifle joint; Group 1 High (25 μg),2.3
same,Average collagen score right leg (picosirius red),left stifle joint; Group 2 Low (6.25 μg),2.3
same,Average collagen score right leg (picosirius red),left stifle joint; Group 3 Local (50 μg),2.4
same,Additional pain medications when the dog woke up,[1]; [2],No additional pain medications
same,Motor functions after waking up,[1]; [2],preserved
same,Need to deepen the general anesthesia during cutting of the bone,[1]; [2],no need to deepen the general anesthesia
same,Need to increase the opioid dose for the last part of the surgery,[1]; [2],no need to increase the opioid dose
same,"Pain at manipulation, inflammation, and swelling (standardized veterinary post-surgical pain scale)",[1]; [2],lower than expected
same,Time until the dog was up and walking,[1]; [2],Within a couple of hours
same,Reaction of the dog during cutting of the bone,[1]; 25 μg RTX perineurally to femoral and sciatic nerves before surgery,no reaction
